Measured values taken from ChEMBL document CHEMBL4422634, “Discovery of novel anti-angiogenesis agents. Part 9: Multiplex inhibitors suppressing compensatory activations of RTKs” (Eur J Med Chem, 2019).

Tests used:
EA.hy 926 = assay: Antiproliferative activity against human EAhy926 cells assessed as reduction in cell viability after 24 hrs by CCK-8 assay; settings: EA.hy 926, 24 h
Angiopoietin-1 receptor = Angiopoietin-1 receptor (Homo sapiens, UniProt Q02763); assay: Inhibition of Tie-2 (unknown origin) after 1 hrs by ADP-Glo luminescence assay
Chain of Angiopoietin-1 receptor (Q02763 whole entry): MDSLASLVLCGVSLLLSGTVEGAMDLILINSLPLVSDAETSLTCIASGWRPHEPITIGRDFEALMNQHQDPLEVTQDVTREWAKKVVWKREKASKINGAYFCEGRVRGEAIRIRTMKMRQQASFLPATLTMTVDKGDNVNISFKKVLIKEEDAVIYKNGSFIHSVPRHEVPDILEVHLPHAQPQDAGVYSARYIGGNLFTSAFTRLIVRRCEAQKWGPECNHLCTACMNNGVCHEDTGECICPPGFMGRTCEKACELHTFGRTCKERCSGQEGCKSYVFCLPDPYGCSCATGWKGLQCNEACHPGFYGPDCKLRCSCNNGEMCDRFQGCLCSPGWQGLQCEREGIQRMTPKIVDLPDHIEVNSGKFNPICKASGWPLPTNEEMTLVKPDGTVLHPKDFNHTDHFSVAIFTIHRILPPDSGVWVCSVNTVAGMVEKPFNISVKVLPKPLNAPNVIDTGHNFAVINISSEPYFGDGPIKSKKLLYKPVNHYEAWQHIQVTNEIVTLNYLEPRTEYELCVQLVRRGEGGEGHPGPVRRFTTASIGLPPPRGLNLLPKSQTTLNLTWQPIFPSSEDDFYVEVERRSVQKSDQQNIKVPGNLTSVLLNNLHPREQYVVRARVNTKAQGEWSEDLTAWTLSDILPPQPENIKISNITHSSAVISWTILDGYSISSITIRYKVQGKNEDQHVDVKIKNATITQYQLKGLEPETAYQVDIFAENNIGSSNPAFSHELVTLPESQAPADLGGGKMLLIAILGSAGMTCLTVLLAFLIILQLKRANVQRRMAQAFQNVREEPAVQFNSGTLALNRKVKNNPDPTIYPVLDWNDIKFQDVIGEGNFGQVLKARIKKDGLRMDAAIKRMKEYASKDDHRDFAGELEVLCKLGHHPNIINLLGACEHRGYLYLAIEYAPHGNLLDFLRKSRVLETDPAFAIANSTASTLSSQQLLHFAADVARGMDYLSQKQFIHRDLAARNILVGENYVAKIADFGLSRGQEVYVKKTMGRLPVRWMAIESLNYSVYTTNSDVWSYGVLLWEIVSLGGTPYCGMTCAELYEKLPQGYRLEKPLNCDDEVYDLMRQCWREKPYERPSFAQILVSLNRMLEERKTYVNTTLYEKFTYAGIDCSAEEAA

Ephrin type-B receptor 4 = target: T1, Ephrin type-B receptor 4 (Homo sapiens, UniProt P54760); assay: Inhibition of EphB4 (unknown origin) after 1 hrs by ADP-Glo luminescence assay
T1 sequence (P54760 whole entry): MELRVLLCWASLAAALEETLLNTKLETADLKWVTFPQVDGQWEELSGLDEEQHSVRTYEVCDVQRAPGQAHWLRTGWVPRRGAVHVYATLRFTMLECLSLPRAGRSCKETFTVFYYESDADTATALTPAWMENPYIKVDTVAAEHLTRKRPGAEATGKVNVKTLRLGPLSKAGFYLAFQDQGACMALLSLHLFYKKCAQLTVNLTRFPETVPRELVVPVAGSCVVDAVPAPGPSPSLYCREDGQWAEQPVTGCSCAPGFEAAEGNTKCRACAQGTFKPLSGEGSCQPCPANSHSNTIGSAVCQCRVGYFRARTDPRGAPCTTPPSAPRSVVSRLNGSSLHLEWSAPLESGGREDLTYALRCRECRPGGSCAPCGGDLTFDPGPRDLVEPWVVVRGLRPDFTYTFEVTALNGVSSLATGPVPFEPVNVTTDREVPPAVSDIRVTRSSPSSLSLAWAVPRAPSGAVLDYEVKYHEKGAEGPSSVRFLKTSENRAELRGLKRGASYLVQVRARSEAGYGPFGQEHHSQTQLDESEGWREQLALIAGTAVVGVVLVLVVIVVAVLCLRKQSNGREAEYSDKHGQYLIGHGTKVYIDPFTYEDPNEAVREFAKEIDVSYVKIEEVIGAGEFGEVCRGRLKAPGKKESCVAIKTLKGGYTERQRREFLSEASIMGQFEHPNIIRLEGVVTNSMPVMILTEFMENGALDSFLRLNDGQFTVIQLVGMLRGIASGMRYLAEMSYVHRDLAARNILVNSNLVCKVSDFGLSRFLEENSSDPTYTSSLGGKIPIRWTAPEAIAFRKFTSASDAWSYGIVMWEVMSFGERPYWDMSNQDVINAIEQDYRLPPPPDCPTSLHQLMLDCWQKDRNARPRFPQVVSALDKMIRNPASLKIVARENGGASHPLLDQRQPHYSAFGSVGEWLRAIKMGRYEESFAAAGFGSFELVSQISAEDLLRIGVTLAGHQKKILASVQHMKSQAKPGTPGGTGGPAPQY

[1] = target: Vascular endothelial growth factor receptor 2 (Homo sapiens, UniProt P35968); assay: Inhibition of VEGFR-2 (unknown origin) after 1 hrs by ADP-Glo luminescence assay
Chain of Vascular endothelial growth factor receptor 2 (P35968 whole entry): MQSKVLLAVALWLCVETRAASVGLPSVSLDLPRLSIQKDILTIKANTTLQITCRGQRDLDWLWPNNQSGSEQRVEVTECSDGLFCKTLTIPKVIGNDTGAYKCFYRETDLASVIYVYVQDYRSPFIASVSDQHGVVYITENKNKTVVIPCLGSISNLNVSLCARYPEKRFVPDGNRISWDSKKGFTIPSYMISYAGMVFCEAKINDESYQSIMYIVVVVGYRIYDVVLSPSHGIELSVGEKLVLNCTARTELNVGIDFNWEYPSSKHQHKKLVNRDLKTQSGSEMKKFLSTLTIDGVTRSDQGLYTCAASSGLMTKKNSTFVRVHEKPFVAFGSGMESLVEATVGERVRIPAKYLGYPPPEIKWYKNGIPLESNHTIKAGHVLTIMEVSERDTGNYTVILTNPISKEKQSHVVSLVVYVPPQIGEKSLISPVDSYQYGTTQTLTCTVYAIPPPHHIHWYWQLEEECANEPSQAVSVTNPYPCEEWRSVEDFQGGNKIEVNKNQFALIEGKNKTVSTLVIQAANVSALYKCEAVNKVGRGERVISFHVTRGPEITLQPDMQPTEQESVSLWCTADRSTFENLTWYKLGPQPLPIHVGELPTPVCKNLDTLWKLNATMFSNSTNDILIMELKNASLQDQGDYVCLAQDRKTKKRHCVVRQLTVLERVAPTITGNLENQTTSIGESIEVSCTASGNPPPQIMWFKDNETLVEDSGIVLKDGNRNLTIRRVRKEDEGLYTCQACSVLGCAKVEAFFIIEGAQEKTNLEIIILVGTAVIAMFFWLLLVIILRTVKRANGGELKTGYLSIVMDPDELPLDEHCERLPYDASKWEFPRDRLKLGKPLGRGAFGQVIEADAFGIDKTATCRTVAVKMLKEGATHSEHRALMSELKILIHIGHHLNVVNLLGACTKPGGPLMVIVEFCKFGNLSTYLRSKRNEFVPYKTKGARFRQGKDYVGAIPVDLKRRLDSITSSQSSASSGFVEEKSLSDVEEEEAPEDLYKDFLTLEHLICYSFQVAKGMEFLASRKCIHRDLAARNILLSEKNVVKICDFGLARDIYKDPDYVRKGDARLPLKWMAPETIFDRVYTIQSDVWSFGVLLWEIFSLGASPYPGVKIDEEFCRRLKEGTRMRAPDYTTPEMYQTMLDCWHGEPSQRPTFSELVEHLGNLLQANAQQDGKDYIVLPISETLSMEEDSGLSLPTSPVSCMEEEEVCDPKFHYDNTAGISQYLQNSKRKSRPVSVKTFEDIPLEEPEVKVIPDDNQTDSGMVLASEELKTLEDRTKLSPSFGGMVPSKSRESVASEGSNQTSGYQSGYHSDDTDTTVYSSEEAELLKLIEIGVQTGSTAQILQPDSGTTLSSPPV

MCF7 = assay: Antiproliferative activity against human MCF7 cells after 48 hrs by MTT assay; settings: MCF7, 48 h
A549 = assay: Antiproliferative activity against human A549 cells after 48 hrs by MTT assay; settings: A549, 48 h
A-431 = assay: Antiproliferative activity against human A431 cells after 48 hrs by MTT assay; settings: A-431, 48 h
HeLa = assay: Antiproliferative activity against human HeLa cells after 48 hrs by MTT assay
LoVo = assay: Antiproliferative activity against human LoVo cells after 48 hrs by MTT assay

Row | IC50 (Angiopoietin-1 receptor) [nM] | IC50 (Ephrin type-B receptor 4) [nM] | Structure (SMILES) | IC50 (EA.hy 926) [nM] | also measured
1 | 13.7 |  | Cc1cccc(-c2cn(Cc3ccc(-c4cncnc4)cc3)nn2)c1 | 142000 | 
2 | > 1000 | > 1000 | FC(F)(F)c1ccc(-c2cn(Cc3ccc(-c4cncnc4)cc3)nn2)cc1 | 46800 | 
3 | 25.7 |  | Cc1ccc(-c2cn(Cc3ccc(-c4cncnc4)cc3)nn2)cc1 | 1010 | 
4 | 9.11 |  | Cn1cc(-c2ccc(Cn3cc(-c4ccc(C(F)(F)F)cc4)nn3)cc2)cn1 |  | IC50 [1]: > 1000 nM
5 | 5.45 |  | Fc1ccccc1-c1cn(Cc2ccc(-c3cncnc3)cc2)nn1 | 22500 | 
6 | 51.9 |  | c1ccc(-c2cn(Cc3ccc(-c4cncnc4)cc3)nn2)cc1 | 35500 | IC50 [1]: > 1000 nM
7 | > 1000 | > 1000 | O=C(Nc1cccc(-c2cn(Cc3ccc(-c4cncnc4)cc3)nn2)c1)C1CC1 | 17300 | 
8 |  | > 1000 | Clc1cccc(-c2cn(Cc3ccc(-c4cncnc4)cc3)nn2)c1 | 7830 | 
9 | 1.79 |  | Cn1cc(-c2ccc(Cn3cc(-c4cccc(C(F)(F)F)c4)nn3)cc2)cn1 | 69000 | 
10 | > 1000 |  | FC(F)(F)c1ccc(-c2cn(Cc3ccc(-c4cn[nH]c4)cc3)nn2)cc1 | 20900 | IC50 [1]: > 1000 nM
11 | 0.82 | > 1000 | Cn1cc(-c2ccc(Cn3cc(-c4cccc(NC(=O)C5CC5)c4)nn3)cc2)cn1 | 484000 | 
12 | 51.4 |  | Cc1cccc(-c2cn(Cc3ccc(-c4cnn(C)c4)cc3)nn2)c1 | 1110 | IC50 [1]: > 1000 nM
13 | 2.69 |  | Cn1cc(-c2ccc(Cn3cc(-c4ccccc4F)nn3)cc2)cn1 | 1900 | IC50 (MCF7): 15600 nM; IC50 (A549): 1200 nM; IC50 (A-431): 7290 nM; IC50 (HeLa): 27800 nM; IC50 (LoVo): 1320 nM
14 | 5.46 |  | Fc1ccccc1-c1cn(Cc2ccc(-c3cn[nH]c3)cc2)nn1 | 20000 | 
15 | > 1000 | > 1000 | Cn1cc(-c2ccc(Cn3cc(-c4cccc(N)c4)nn3)cc2)cn1 | 22000 | 
16 | > 1000 |  | Cn1cc(-c2ccc(Cn3cc(-c4ccccc4)nn3)cc2)cn1 | 62200 | 
17 | > 1000 | > 1000 | Nc1cccc(-c2cn(Cc3ccc(-c4cn[nH]c4)cc3)nn2)c1 | 251000 | IC50 [1]: > 1000 nM
18 |  |  | CNC(=O)c1cc(Oc2ccc(NC(=O)Nc3ccc(Cl)c(C(F)(F)F)c3)cc2)ccn1 [SORAFENIB] |  | IC50 (MCF7): 3470 nM; IC50 (A549): 3880 nM; IC50 (A-431): 3320 nM; IC50 (HeLa): 8740 nM; IC50 (LoVo): 2520 nM
19 | 210 | > 1000 | Nc1cccc(-c2cn(Cc3ccc(-c4cncnc4)cc3)nn2)c1 | 30200 | 
20 | 46.4 | > 1000 | Cc1cccc(-c2cn(Cc3ccc(-c4cn[nH]c4)cc3)nn2)c1 | 134000 | 
21 | 77.4 |  | Cc1ccc(-c2cn(Cc3ccc(-c4cnn(C)c4)cc3)nn2)cc1 | 38100 | 
